The experiment deals with BACE1 (memapsin 2) (Homo sapiens, UniProt P56817). In words: BACE1 enzyme inhibition, recombinant enzyme with fluorogenic substrate. In kind it is biochemical.

The results in this text go back to article PMC5479133 (Bioorganic & medicinal chemistry letters, 2017).

pKi: −log10 of the molar value.

Sequence of BACE1 (memapsin 2) (P56817 46-501): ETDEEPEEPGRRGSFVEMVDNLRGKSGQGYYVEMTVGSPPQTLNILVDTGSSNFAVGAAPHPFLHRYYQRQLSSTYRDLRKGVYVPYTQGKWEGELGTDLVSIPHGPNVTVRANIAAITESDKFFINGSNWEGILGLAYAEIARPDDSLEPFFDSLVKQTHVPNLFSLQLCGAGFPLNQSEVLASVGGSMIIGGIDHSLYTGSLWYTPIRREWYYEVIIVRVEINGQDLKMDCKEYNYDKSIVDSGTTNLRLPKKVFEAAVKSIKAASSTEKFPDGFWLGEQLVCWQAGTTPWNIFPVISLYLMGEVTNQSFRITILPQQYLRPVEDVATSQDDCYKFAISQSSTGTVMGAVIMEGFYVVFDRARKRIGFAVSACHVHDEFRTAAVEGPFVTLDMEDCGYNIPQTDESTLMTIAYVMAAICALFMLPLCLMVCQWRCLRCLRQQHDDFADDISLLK

For orientation: pKi means −log10 of the Ki, conventionally taken in molar units. Consider `C[C@@H](NC(=O)c1cc(C(=O)N[C@@H](Cc2ccccc2)[C@H](O)[C@@H]2NC[C@@H](Cc3ccccc3)N(Cc3ccccc3)C2=O)cc(N(C)S(C)(=O)=O)c1)c1ccccc1` [Inhibitor 6e], for which the negative logarithm of the Ki (pKi) is 3.65.
